According to US5776433A, “Flunisolide aerosol formulations” (Minnesota Mining and Manufacturing Company, priority 1995, dated 1998):

Assay type: physicochemical
Text: This intermediate level of solubility can lead to particle size increase of the drug in a suspension formulation. It is well known that particles having a diameter of greater than about 10 μm are not suitable for inhalation to the lung. Therefore particle size increase can threaten the utility of a pharmaceutical aerosol formulation.

- solubility in 1:1 blend of HFA 134a and HFA 227: about 0.007 % by weight
- solubility in HFA 134a: about 0.006 % by weight
- solubility in HFA 227: about 0.004 % by weight
Compound: CC1(C)O[C@@H]2C[C@H]3[C@@H]4C[C@H](F)C5=CC(=O)C=C[C@]5(C)[C@H]4[C@@H](O)C[C@]3(C)[C@]2(C(=O)CO)O1 [flunisolide hemihydrate, 6α-fluoro-11β, 16α, 17,21-tetrahydroxypregna-1,4-diene-3,20-dione cyclic 16,17-acetal with acetone]
